{
  "source": "ChEMBL document CHEMBL1155703",
  "about": "“Sequences and antimycoplasmic properties of longibrachins LGB II and LGB III, two novel 20-residue peptaibols from Trichoderma longibrachiatum” (J Nat Prod, 2001)",
  "key": {"[1]": {"system": "Acholeplasma laidlawii", "assay": "Antimicrobial activity against Acholeplasma laidlawii PG-8A after 2 hrs", "format": "functional", "details": "for MIC: Acholeplasma laidlawii, PG-8A, 2 h"}, "[2]": {"system": "Mycoplasmoides gallisepticum", "assay": "Antimicrobial activity against Mycoplasma gallisepticum S6 after 2 hrs", "format": "functional", "details": "for MIC: Mycoplasmoides gallisepticum, S6, 2 h"}, "[3]": {"system": "Mycoplasma mycoides subsp. mycoides SC", "assay": "Antimicrobial activity against Mycoplasma mycoides subsp. mycoides SC KH3J after 2 hrs", "format": "functional"}, "[4]": {"system": "Spiroplasma apis", "assay": "Antimicrobial activity against Spiroplasma apis B31 after 2 hrs", "format": "functional", "details": "for MIC: Spiroplasma apis, B31, 2 h"}, "[5]": {"system": "Spiroplasma citri", "assay": "Antimicrobial activity against Spiroplasma citri R8A2 after 2 hrs", "format": "functional", "details": "R8A2, 2 h"}, "[6]": {"system": "Spiroplasma floricola", "assay": "Antimicrobial activity against Spiroplasma floricola BNR1 after 2 hrs", "format": "functional", "details": "for MIC: Spiroplasma floricola, BNR1, 2 h"}, "[7]": {"assay": "Bilayer membrane permeabilization assessed as lipid to peptide ratio allowing 50% leakage of entrapped carboxyfluorescein from egg phosphatidylcholine-cholesterol liposomes at 1.1 uM at 20 mins by spectrofluorimetry", "format": "physicochemical"}, "[8]": {"assay": "Bilayer membrane permeabilization assessed as lipid to peptide ratio allowing 50% leakage of entrapped carboxyfluorescein from egg phosphatidylcholine-cholesterol liposomes at 0.21 uM at 20 mins by spectrofluorimetry", "format": "physicochemical"}, "[9]": {"assay": "Bilayer membrane permeabilization assessed as lipid to peptide ratio allowing 50% leakage of entrapped carboxyfluorescein from egg phosphatidylcholine-cholesterol liposomes at 0.49 uM at 20 mins by spectrofluorimetry", "format": "physicochemical"}, "[10]": {"assay": "Bilayer membrane permeabilization assessed as lipid to peptide ratio allowing 50% leakage of entrapped carboxyfluorescein from egg phosphatidylcholine-cholesterol liposomes at 0.40 uM at 20 mins by spectrofluorimetry", "format": "physicochemical", "details": "0.4 µM"}, "[11]": {"assay": "Bilayer membrane permeabilization assessed as lipid to peptide ratio allowing 50% leakage of entrapped carboxyfluorescein from egg phosphatidylcholine-cholesterol liposomes at 0.13 uM at 20 mins by spectrofluorimetry", "format": "physicochemical"}, "[12]": {"assay": "Bilayer membrane permeabilization assessed as lipid to peptide ratio allowing 50% leakage of entrapped carboxyfluorescein from egg phosphatidylcholine-cholesterol liposomes at 0.36 uM at 20 mins by spectrofluorimetry", "format": "physicochemical"}},
  "data": [
    {"smiles": "CC[C@@](C)(NC(=O)C(C)(C)NC(=O)[C@@H](NC(=O)[C@@H]1CCCN1C(=O)C(C)(C)NC(=O)[C@H](CC(C)C)NC(=O)CNC(=O)C(C)(C)NC(=O)[C@@H](NC(=O)C(C)(C)NC(=O)[C@H](CCC(N)=O)NC(=O)[C@H](C)NC(=O)C(C)(C)NC(=O)[C@H](C)NC(=O)C(C)(C)NC(=O)[C@H](C)NC(=O)C(C)(C)NC(C)=O)C(C)C)C(C)C)C(=O)N[C@@H](CCC(=O)O)C(=O)N[C@@H](CCC(N)=O)C(=O)N[C@H](CO)Cc1ccccc1", "values": [
      {"measurement": "MLC", "setting": "[1]", "result": 3.12, "unit": "µM"},
      {"measurement": "MIC", "setting": "[1]", "result": 1.56, "unit": "µM"},
      {"measurement": "MLC", "setting": "[2]", "result": 3.12, "unit": "µM"},
      {"measurement": "MIC", "setting": "[2]", "result": 6.25, "unit": "µM"},
      {"measurement": "MIC", "setting": "[3]", "result": 6.25, "unit": "µM"},
      {"measurement": "MLC", "setting": "[4]", "result": 3.12, "unit": "µM"},
      {"measurement": "MIC", "setting": "[4]", "result": 12.5, "unit": "µM"},
      {"measurement": "MIC", "setting": "[5]", "result": 6.25, "unit": "µM"},
      {"measurement": "MLC", "setting": "[6]", "result": 3.12, "unit": "µM"},
      {"measurement": "MIC", "setting": "[6]", "result": 12.5, "unit": "µM"},
      {"measurement": "Ratio", "setting": "[7]", "result": 540}
    ]},
    {"smiles": "CC[C@@](C)(NC(=O)C(C)(C)NC(=O)[C@@H](NC(=O)[C@@H]1CCCN1C(=O)C(C)(C)NC(=O)[C@H](CC(C)C)NC(=O)CNC(=O)C(C)(C)NC(=O)[C@@H](NC(=O)C(C)(C)NC(=O)[C@H](CCC(N)=O)NC(=O)[C@H](C)NC(=O)C(C)(C)NC(=O)[C@H](C)NC(=O)C(C)(C)NC(=O)[C@H](C)NC(=O)C(C)(C)NC(C)=O)C(C)C)C(C)C)C(=O)N[C@@H](CCC(N)=O)C(=O)N[C@@H](CCC(N)=O)C(=O)N[C@@H](CO)Cc1ccccc1", "values": [
      {"measurement": "Ratio", "setting": "[8]", "result": 2860}
    ]},
    {"smiles": "CC[C@@](C)(NC(=O)C(C)(C)NC(=O)[C@H](C)NC(=O)[C@H](CO)NC(=O)C(C)(C)NC(C)=O)C(=O)N[C@@H](CCC(N)=O)C(=O)NC(C)(C)C(=O)N[C@H](C(=O)NC(C)(C)C(=O)NCC(=O)N[C@@H](CC(C)C)C(=O)NC(C)(C)C(=O)N1CCC[C@H]1C(=O)N[C@@H](CC(C)C)C(=O)NC(C)(C)C(=O)NC(C)(C)C(=O)N[C@@H](CCC(N)=O)C(=O)N[C@H](CO)Cc1ccccc1)C(C)C", "note": "[listing 1 of 2 here]", "values": [
      {"measurement": "Ratio", "setting": "[9]", "result": 1220}
    ]},
    {"smiles": "CC[C@@](C)(NC(=O)C(C)(C)NC(=O)[C@H](C)NC(=O)[C@H](CO)NC(=O)C(C)(C)NC(C)=O)C(=O)N[C@@H](CCC(N)=O)C(=O)NC(C)(C)C(=O)N[C@H](C(=O)NC(C)(C)C(=O)NCC(=O)N[C@@H](CC(C)C)C(=O)NC(C)(C)C(=O)N1CCC[C@H]1C(=O)N[C@@H](CC(C)C)C(=O)NC(C)(C)C(=O)NC(C)(C)C(=O)N[C@@H](CCC(N)=O)C(=O)N[C@H](CO)Cc1ccccc1)C(C)C", "note": "[listing 2 of 2 here]", "values": [
      {"measurement": "MIC", "setting": "[1]", "result": 3.12, "unit": "µM"},
      {"measurement": "MIC", "setting": "[2]", "result": 6.25, "unit": "µM"},
      {"measurement": "MIC", "setting": "[3]", "result": 12.5, "unit": "µM"},
      {"measurement": "MIC", "setting": "[4]", "result": 12.5, "unit": "µM"},
      {"measurement": "MIC", "setting": "[5]", "result": 12.5, "unit": "µM"},
      {"measurement": "MIC", "setting": "[6]", "result": 25, "unit": "µM"}
    ]},
    {"smiles": "CC[C@@](C)(NC(=O)C(C)(C)NC(=O)[C@@H](NC(=O)[C@@H]1CCCN1C(=O)C(C)(C)NC(=O)C(C)(C)NC(=O)CNC(=O)C(C)(C)NC(=O)C(C)(C)NC(=O)[C@H](CC(C)C)NC(=O)C(C)(C)NC(=O)[C@H](CCC(N)=O)NC(=O)C(C)(C)NC(=O)[C@H](C)NC(=O)C(C)(C)NC(=O)[C@H](C)NC(=O)C(C)(C)NC(C)=O)C(C)C)C(=O)N[C@@H](CCC(N)=O)C(=O)N[C@@H](CCC(N)=O)C(=O)N[C@H](CO)Cc1ccccc1", "values": [
      {"measurement": "Ratio", "setting": "[10]", "result": 1000}
    ]},
    {"smiles": "CC[C@@](C)(NC(=O)C(C)(C)NC(=O)[C@@H](NC(=O)[C@@H]1CCCN1C(=O)C(C)(C)NC(=O)[C@H](CC(C)C)NC(=O)CNC(=O)C(C)(C)NC(=O)[C@@H](NC(=O)C(C)(C)NC(=O)[C@H](CCC(N)=O)NC(=O)C(C)(C)NC(=O)C(C)(C)NC(=O)[C@H](C)NC(=O)C(C)(C)NC(=O)[C@H](C)NC(=O)C(C)(C)NC(C)=O)C(C)C)C(C)C)C(=O)N[C@@H](CCC(N)=O)C(=O)N[C@@H](CCC(N)=O)C(=O)N[C@H](CO)Cc1ccccc1", "values": [
      {"measurement": "MLC", "setting": "[1]", "result": 3.12, "unit": "µM"},
      {"measurement": "MIC", "setting": "[1]", "result": 0.78, "unit": "µM"},
      {"measurement": "MLC", "setting": "[2]", "result": 3.12, "unit": "µM"},
      {"measurement": "MIC", "setting": "[2]", "result": 6.25, "unit": "µM"},
      {"measurement": "MIC", "setting": "[3]", "result": 6.25, "unit": "µM"},
      {"measurement": "MLC", "setting": "[4]", "result": 3.12, "unit": "µM"},
      {"measurement": "MIC", "setting": "[4]", "result": 6.25, "unit": "µM"},
      {"measurement": "MIC", "setting": "[5]", "result": 3.12, "unit": "µM"},
      {"measurement": "MLC", "setting": "[6]", "result": 3.12, "unit": "µM"},
      {"measurement": "MIC", "setting": "[6]", "result": 6.25, "unit": "µM"},
      {"measurement": "Ratio", "setting": "[11]", "result": 4545}
    ]},
    {"smiles": "CC[C@@](C)(NC(=O)C(C)(C)NC(=O)[C@@H](NC(=O)[C@@H]1CCCN1C(=O)C(C)(C)NC(=O)[C@H](CC(C)C)NC(=O)CNC(=O)C(C)(C)NC(=O)[C@@H](NC(=O)C(C)(C)NC(=O)[C@H](CCC(N)=O)NC(=O)[C@H](C)NC(=O)C(C)(C)NC(=O)[C@H](C)NC(=O)C(C)(C)NC(=O)[C@H](C)NC(=O)C(C)(C)NC(C)=O)C(C)C)C(C)C)C(=O)N[C@@H](CCC(=O)O)C(=O)N[C@@H](CCC(N)=O)C(=O)N[C@H](COC)Cc1ccccc1", "values": [
      {"measurement": "Ratio", "setting": "[12]", "result": 2500}
    ]}
  ]
}
